Experimental data taken from PMC9127750, “Structure-based design of CDC42 effector interaction inhibitors for the treatment of cancer” (Cell reports, 2022).

Test system: WM3248 melanoma cells, 486 antibodies
Assay: Reverse phase protein arrays (RPPA)
Type: cell-based, Human
Conditions: 10 uM
Excerpt: Pellets were snap frozen in liquid nitrogen and shipped to MD Anderson Cancer Center core RPPA facility for RPPA analysis (Table S5). Three biological replicates for each sample were generated.
Nomenclatures on the RPPA heatmaps: name_of_antibody.species_of_antibody.status_of_antibody. V - antibody validated; C - validation of antibody in progress; Q - antibody nonspecific; E – under evaluation; antibodies raised in M - mouse, G - goat, R - rabbit, or T - rat.

Compound: CN(C)c1cccc(Nc2cc(-c3ccccc3)nc(C3CCNCC3)n2)c1 [ARN22089, N1,N1-dimethyl-N3-(6-phenyl-2-(piperidin-4-yl)pyrimidin-4-yl)benzene-1,3-diamine]
- RPPA PTPN12.R.V Average (average of 3): 0.962
- RPPA PYGB.R.V Average (average of 3): 1.021
- RPPA PYGM.M.C Average (average of 3): 1.025
- RPPA Puma.R.C Average (average of 3): 0.968
- RPPA Pyk2_pY402.R.C Average (average of 3): 0.960
- RPPA RBM15.R.V Average (average of 3): 0.873
- RPPA RIP3.R.C Average (average of 3): 0.948
- RPPA RIP.R.C Average (average of 3): 0.978
- RPPA RPA32_pS4_S8.R.C Average (average of 3): 1.083
- RPPA RRM1.R.C Average (average of 3): 0.916
- RPPA RRM2.R.C Average (average of 3): 0.917
- RPPA RSK1.R.V Average (average of 3): 0.967
- RPPA RSK.R.C Average (average of 3): 0.909
- RPPA Rab11.R.C Average (average of 3): 0.990
- RPPA Rab25.R.V Average (average of 3): 0.979
- RPPA Rad17_pS645.R.V Average (average of 3): 1.063
- RPPA Rad23A.R.C Average (average of 3): 0.920
- RPPA Rad50.R.V Average (average of 3): 0.991
- RPPA Rad51.R.C Average (average of 3): 1.083
- RPPA Raptor.R.V Average (average of 3): 0.939
- RPPA Rb.M.Q Average (average of 3): 1.024
- RPPA Rb_pS807_S811.R.V Average (average of 3): 0.952
- RPPA Rheb.M.C Average (average of 3): 1.056
- RPPA Rictor.R.C Average (average of 3): 0.955
- RPPA Rictor_pT1135.R.V Average (average of 3): 1.027
- RPPA S6.M.V Average (average of 3): 0.930
- RPPA S6_pS235_S236.R.V Average (average of 3): 0.713
- RPPA S6_pS240_S244.R.V Average (average of 3): 0.956
- RPPA SCD.M.V Average (average of 3): 1.034
- RPPA SF2.R.V Average (average of 3): 1.005
- RPPA SFRP1.R.V Average (average of 3): 0.965
- RPPA SGK1.R.V Average (average of 3): 1.012
- RPPA SGK3.R.V Average (average of 3): 1.035
- RPPA SHP2.R.V Average (average of 3): 1.004
- RPPA SHP.2_pY542.R.C Average (average of 3): 0.896
- RPPA SIRPαR.V Average (average of 3): 1.009
- RPPA SLC1A5.R.C Average (average of 3): 0.975
- RPPA SOD1.M.V Average (average of 3): 1.031
- RPPA SOD2.R.V Average (average of 3): 1.115
- RPPA SOX7.R.V Average (average of 3): 1.015
- RPPA STING.R.V Average (average of 3): 0.904
- RPPA Shc_pY317.R.C Average (average of 3): 1.847
- RPPA Slfn11.G.C Average (average of 3): 0.945
- RPPA Smac.M.Q Average (average of 3): 0.998
- RPPA Smad1.R.V Average (average of 3): 1.021
- RPPA Smad3.R.V Average (average of 3): 0.979
- RPPA Snail.M.Q Average (average of 3): 0.977
- RPPA Sox2.R.V Average (average of 3): 0.987
- RPPA Sox17.R.V Average (average of 3): 1.018
- RPPA Src.M.V Average (average of 3): 1.079
- RPPA Src_pY416.R.V Average (average of 3): 0.992
- RPPA Src_pY527.R.V Average (average of 3): 0.908
- RPPA Stat1_pY701.R.V Average (average of 3): 1.035
- RPPA Stat3.R.C Average (average of 3): 0.972
- RPPA Stat3_pY705.R.C Average (average of 3): 1.002
- RPPA Stat5a.R.V Average (average of 3): 0.958
- RPPA TAZ.R.V Average (average of 3): 0.958
- RPPA TEAD.R.C Average (average of 3): 0.967
- RPPA TFAM.R.V Average (average of 3): 0.914
- RPPA TFRC.R.V Average (average of 3): 0.926
- RPPA TIGAR.R.V Average (average of 3): 0.978
- RPPA TRAP1.M.V Average (average of 3): 1.032
- RPPA TRIM25.R.C Average (average of 3): 0.869
- RPPA TRIP13.R.V Average (average of 3): 1.026
- RPPA Transglutaminase.M.V Average (average of 3): 1.215
- RPPA signal, antibody TSC1.R.C, Average (average of 3 replicates): 0.905
- RPPA signal, antibody TTF1.R.V, Average (average of 3 replicates): 0.943
- RPPA signal, antibody TUFM.R.V, Average (average of 3 replicates): 1.288
- RPPA signal, antibody Tuberin.R.V, Average (average of 3 replicates): 0.933
- RPPA signal, antibody Tuberin_pT1462.R.V, Average (average of 3 replicates): 1.050
- RPPA signal, antibody Twist.M.C, Average (average of 3 replicates): 1.060
- RPPA signal, antibody Tyro3.R.V, Average (average of 3 replicates): 1.231
- RPPA signal, antibody U.Histone.H2B.R.C, Average (average of 3 replicates): 0.832
- RPPA signal, antibody UBAC1.R.V, Average (average of 3 replicates): 0.948
- RPPA signal, antibody UBQLN4.M.C, Average (average of 3 replicates): 0.975
- RPPA signal, antibody UGT1A.M.V, Average (average of 3 replicates): 1.078
- RPPA signal, antibody ULK1_pS757.R.C, Average (average of 3 replicates): 0.965
- RPPA signal, antibody UQCRC2.M.C, Average (average of 3 replicates): 0.921
- RPPA signal, antibody UVRAG.R.C, Average (average of 3 replicates): 0.967
- RPPA signal, antibody VASP.R.V, Average (average of 3 replicates): 0.887
- RPPA signal, antibody VAV1.R.C, Average (average of 3 replicates): 0.939
- RPPA signal, antibody VEGFR.2.R.V, Average (average of 3 replicates): 0.919
